Results taken from PMC10215352 (Biology, 2023).
Peptide text beside a SMILES is read from it.

Columns and labels:
Format in all cases: cell-based
[1] = target: T1, YjdL (Escherichia coli, UniProt P39276); test: fluorescent uptake in E. coli; conditions: 0.5 mM, labelled compound, cells preloaded with AA, with and without CCCP, 37 °C
T1 construct: gene dtpC; full-length, C-terminal His6 tag, expressed in E. coli BL21(DE3) pLysS, whole-cell uptake
T1 sequence (P39276 1-485): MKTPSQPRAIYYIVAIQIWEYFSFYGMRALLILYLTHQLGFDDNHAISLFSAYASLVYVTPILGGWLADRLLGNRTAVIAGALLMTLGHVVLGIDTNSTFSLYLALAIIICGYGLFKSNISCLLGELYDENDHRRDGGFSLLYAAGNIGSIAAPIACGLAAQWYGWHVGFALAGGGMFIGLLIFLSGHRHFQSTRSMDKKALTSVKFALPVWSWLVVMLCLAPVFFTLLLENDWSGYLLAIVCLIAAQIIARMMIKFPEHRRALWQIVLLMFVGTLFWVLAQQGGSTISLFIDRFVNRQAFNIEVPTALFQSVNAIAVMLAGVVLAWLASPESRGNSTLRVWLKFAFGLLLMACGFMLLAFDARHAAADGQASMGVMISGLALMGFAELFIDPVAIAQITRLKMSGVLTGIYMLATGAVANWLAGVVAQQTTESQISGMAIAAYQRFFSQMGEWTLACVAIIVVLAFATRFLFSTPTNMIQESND

[2] = target: T2, YdgR (Escherichia coli, UniProt P77304); test: fluorescent uptake in E. coli; conditions: 0.5 mM, labelled compound, pH 6.5, 37 °C
T2 construct: gene dtpA; full-length, C-terminal His6 tag, expressed in E. coli BL21(DE3) pLysS, whole-cell uptake
T2 sequence (P77304 1-500): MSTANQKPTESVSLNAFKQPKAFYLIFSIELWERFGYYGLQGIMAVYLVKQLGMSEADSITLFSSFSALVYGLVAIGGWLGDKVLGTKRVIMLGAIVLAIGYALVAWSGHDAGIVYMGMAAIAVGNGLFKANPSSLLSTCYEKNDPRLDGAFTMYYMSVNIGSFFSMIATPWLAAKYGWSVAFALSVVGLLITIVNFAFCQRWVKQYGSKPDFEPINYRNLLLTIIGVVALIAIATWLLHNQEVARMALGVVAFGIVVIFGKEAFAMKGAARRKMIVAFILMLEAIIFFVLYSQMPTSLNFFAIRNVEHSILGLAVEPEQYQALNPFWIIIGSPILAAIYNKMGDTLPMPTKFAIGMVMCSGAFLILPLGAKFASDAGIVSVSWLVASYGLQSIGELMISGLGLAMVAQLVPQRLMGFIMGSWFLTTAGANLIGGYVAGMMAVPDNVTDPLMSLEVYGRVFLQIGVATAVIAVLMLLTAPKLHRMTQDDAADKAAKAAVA

[3] = target: T2, YdgR; test: inhibition of β-Ala-Lys-AMCA uptake in E. coli; conditions: 10 mM peptide, 0.5 mM labelled substrate β-Ala-Lys-AMCA, pH 6.5, 37 °C; competing substrate

## Cc1c(CC(=O)NCCCC[C@H](NC(=O)CCN)C(=O)O)c(=O)oc2cc(N)ccc12 [β-Ala-Lys-AMCA]
[1]
  fluorescent uptake in E. coli: YjdL and YdgR exhibited a significant decline in uptake activity in the presence of CCCP
[2]
  fluorescent uptake in E. coli: Overall β-Ala-Lys-AMCA uptake by CPEPOT was significantly lower than YdgR

## C[C@H](N)C(=O)N[C@@H](C)C(=O)O [AA] (H-Ala-Ala-OH)
[3]
  uptake inhibition: its uptake was significantly decreased in the presence of AA and AAA
